Assay results: ChEMBL document CHEMBL1201862, “PubChem BioAssay data set” (2004)
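1) Cells in 96-well plates. 2) Compound, 48 h, 5 concentrations. 3) Linear interpolation between surrounding doses. 4) Unreached endpoint = highest concentration. GI50 = concentration required for 50% inhibition of growth.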 The source made the active and inactive calls. Cut-off read from the data, not from the text of the source: active = GI50 up to about 1.1 µM and inactive = higher.

How the values were obtained:
Test in all cases: NCI anticancer screen, dose series, 48 h
SNB-19 = test system: SNB-19
UO-31 = test system: UO-31
SF-295 = test system: SF-295
HOP-92 = test system: HOP-92
RPMI-8226 = test system: RPMI-8226
SNB-75 = test system: SNB-75
SR = test system: SR
K562 = test system: K562
SK-OV-3 = test system: SK-OV-3
NCI-H226 = test system: NCI-H226
OVCAR-4 = test system: OVCAR-4
COLO 205 = test system: COLO 205
SF-268 = test system: SF-268
OVCAR-5 = test system: OVCAR-5
NCI-H460 = test system: NCI-H460
786-0 = test system: 786-0
IGROV-1 = test system: IGROV-1
RXF 393 = test system: RXF 393
MCF7 = test system: MCF7

Row | Structure (SMILES) | GI50 (SNB-19) | GI50 (UO-31) | GI50 (SF-295) | GI50 (HOP-92) | GI50 (RPMI-8226) | GI50 (SNB-75) | GI50 (SR) | GI50 (K562) | GI50 (SK-OV-3) | GI50 (NCI-H226) | GI50 (OVCAR-4) | GI50 (COLO 205) | GI50 (SF-268) | GI50 (OVCAR-5) | GI50 (NCI-H460) | GI50 (786-0) | GI50 (IGROV-1) | GI50 (RXF 393) | GI50 (MCF7)
1 | N#CC(c1ccc(Cl)cc1)c1cccc(Cl)n1 (stereo not given) | > 100 µM (inactive) | 28.1 µM (inactive) | 61.9 µM (inactive) | 30.2 µM (inactive) | 51.1 µM (inactive) | 21.5 µM (inactive) | 45.1 µM (inactive) | 58.9 µM (inactive) | 42.1 µM (inactive) | 43.6 µM (inactive) | 40 µM (inactive) | 67.1 µM (inactive) | 38.4 µM (inactive) | > 100 µM (inactive) | > 100 µM (inactive) | 82.2 µM (inactive) | – | – | –
2 | CC1=CC(=O)NP(=O)(Oc2ccc(C)cc2)N1 (stereo not given) | > 100 µM (inactive) | > 100 µM (inactive) | > 100 µM (inactive) | > 100 µM (inactive) | > 100 µM (inactive) | > 100 µM (inactive) | > 100 µM (inactive) | > 100 µM (inactive) | > 100 µM (inactive) | > 100 µM (inactive) | > 100 µM (inactive) | > 100 µM (inactive) | > 100 µM (inactive) | > 100 µM (inactive) | > 100 µM (inactive) | > 100 µM (inactive) | > 100 µM (inactive) | – | –
3 | NC(=S)N/N=C/c1cn(CCCl)c2ccccc12 | > 100 µM (inactive) | 16.9 µM (inactive) | 13.6 µM (inactive) | 21.9 µM (inactive) | 14.2 µM (inactive) | 12.9 µM (inactive) | 11 µM (inactive) | 8.05 µM (inactive) | > 100 µM (inactive) | – | – | 46.5 µM (inactive) | > 100 µM (inactive) | 3.81 µM (inactive) | – | 43.7 µM (inactive) | > 100 µM (inactive) | > 100 µM (inactive) | –
4 | COc1ccc([C@@H]2OC(=O)C3C2C(=O)O[C@H]3c2ccc(OC)cc2)cc1 (stereo not given in full) | > 100 µM (inactive) | > 100 µM (inactive) | > 100 µM (inactive) | 0.209 µM (active) | > 100 µM (inactive) | > 100 µM (inactive) | > 100 µM (inactive) | > 100 µM (inactive) | > 100 µM (inactive) | – | > 100 µM (inactive) | > 100 µM (inactive) | – | – | > 100 µM (inactive) | > 100 µM (inactive) | > 100 µM (inactive) | 76.4 µM (inactive) | –
5 | O=C1C2=C(CCCCC2)C2CCCCC12O (stereo not given) | > 100 µM (inactive) | > 100 µM (inactive) | > 100 µM (inactive) | > 100 µM (inactive) | > 100 µM (inactive) | > 100 µM (inactive) | > 100 µM (inactive) | > 100 µM (inactive) | > 100 µM (inactive) | > 100 µM (inactive) | – | > 100 µM (inactive) | > 100 µM (inactive) | – | > 100 µM (inactive) | > 100 µM (inactive) | > 100 µM (inactive) | > 100 µM (inactive) | –
6 | COc1ccc(C2OC(c3ccncc3)=NN2C)cc1F (stereo not given) | > 100 µM (inactive) | > 100 µM (inactive) | > 100 µM (inactive) | > 100 µM (inactive) | > 100 µM (inactive) | – | – | > 100 µM (inactive) | > 100 µM (inactive) | > 100 µM (inactive) | > 100 µM (inactive) | > 100 µM (inactive) | > 100 µM (inactive) | > 100 µM (inactive) | > 100 µM (inactive) | > 100 µM (inactive) | > 100 µM (inactive) | > 100 µM (inactive) | > 100 µM (inactive)
7 | Cc1ccc(C2SCc3nc4ccccc4n32)cc1 (stereo not given) | 4.65 µM (inactive) | 5.36 µM (inactive) | 2.19 µM (inactive) | 3.74 µM (inactive) | 5.31 µM (inactive) | 0.0103 µM (active) | – | 0.671 µM (active) | 7.8 µM (inactive) | 1.88 µM (inactive) | 8.77 µM (inactive) | 1.36 µM (inactive) | 11.7 µM (inactive) | 6.46 µM (inactive) | 3.76 µM (inactive) | 5.62 µM (inactive) | 3.18 µM (inactive) | 1.98 µM (inactive) | 4.68 µM (inactive)
8 | CC1=NN(c2cccc(Cl)c2)C(=N/c2nc3ccccc3s2)/C1=C\C=C\c1ccccc1 | – | 28.4 µM (inactive) | 33.5 µM (inactive) | – | 18.9 µM (inactive) | – | 0.359 µM (active) | 9.23 µM (inactive) | 34.6 µM (inactive) | 79.8 µM (inactive) | 45.1 µM (inactive) | – | 35.8 µM (inactive) | 46.5 µM (inactive) | 29.7 µM (inactive) | 41.4 µM (inactive) | 20 µM (inactive) | 51.4 µM (inactive) | 25.7 µM (inactive)
9 | Cn1c(=O)oc2cc(C(=O)CN3CCN(Cc4ccc5c(c4)OCO5)CC3)c(Cl)cc21 | > 100 µM (inactive) | 94 µM (inactive) | > 100 µM (inactive) | – | > 100 µM (inactive) | > 100 µM (inactive) | > 100 µM (inactive) | > 100 µM (inactive) | > 100 µM (inactive) | – | – | > 100 µM (inactive) | > 100 µM (inactive) | > 100 µM (inactive) | > 100 µM (inactive) | > 100 µM (inactive) | > 100 µM (inactive) | > 100 µM (inactive) | > 100 µM (inactive)
